Results as given in patent publication US20180148418A1, “AMIDO-SUBSTITUTED CYCLOHEXANE DERIVATIVES” (Bayer Pharma Aktiengesellschaft, priority 2015, published 2018).

Experiments:
[1] = target: T1, TNKS2 (Homo sapiens, UniProt Q9H2K2); test: TNKS2 Assay B (auto-parsylation, [3H]-NAD+ SPA); type: biochemical; details: 6 nM TNKS2, auto-parsylation, over night at room temperature
T1 construct: purchased BPS Bioscience, San Diego, USA 80572 (TNKS2 Histone Ribosylation Assay Kit)
T1 sequence (Q9H2K2 1-1166): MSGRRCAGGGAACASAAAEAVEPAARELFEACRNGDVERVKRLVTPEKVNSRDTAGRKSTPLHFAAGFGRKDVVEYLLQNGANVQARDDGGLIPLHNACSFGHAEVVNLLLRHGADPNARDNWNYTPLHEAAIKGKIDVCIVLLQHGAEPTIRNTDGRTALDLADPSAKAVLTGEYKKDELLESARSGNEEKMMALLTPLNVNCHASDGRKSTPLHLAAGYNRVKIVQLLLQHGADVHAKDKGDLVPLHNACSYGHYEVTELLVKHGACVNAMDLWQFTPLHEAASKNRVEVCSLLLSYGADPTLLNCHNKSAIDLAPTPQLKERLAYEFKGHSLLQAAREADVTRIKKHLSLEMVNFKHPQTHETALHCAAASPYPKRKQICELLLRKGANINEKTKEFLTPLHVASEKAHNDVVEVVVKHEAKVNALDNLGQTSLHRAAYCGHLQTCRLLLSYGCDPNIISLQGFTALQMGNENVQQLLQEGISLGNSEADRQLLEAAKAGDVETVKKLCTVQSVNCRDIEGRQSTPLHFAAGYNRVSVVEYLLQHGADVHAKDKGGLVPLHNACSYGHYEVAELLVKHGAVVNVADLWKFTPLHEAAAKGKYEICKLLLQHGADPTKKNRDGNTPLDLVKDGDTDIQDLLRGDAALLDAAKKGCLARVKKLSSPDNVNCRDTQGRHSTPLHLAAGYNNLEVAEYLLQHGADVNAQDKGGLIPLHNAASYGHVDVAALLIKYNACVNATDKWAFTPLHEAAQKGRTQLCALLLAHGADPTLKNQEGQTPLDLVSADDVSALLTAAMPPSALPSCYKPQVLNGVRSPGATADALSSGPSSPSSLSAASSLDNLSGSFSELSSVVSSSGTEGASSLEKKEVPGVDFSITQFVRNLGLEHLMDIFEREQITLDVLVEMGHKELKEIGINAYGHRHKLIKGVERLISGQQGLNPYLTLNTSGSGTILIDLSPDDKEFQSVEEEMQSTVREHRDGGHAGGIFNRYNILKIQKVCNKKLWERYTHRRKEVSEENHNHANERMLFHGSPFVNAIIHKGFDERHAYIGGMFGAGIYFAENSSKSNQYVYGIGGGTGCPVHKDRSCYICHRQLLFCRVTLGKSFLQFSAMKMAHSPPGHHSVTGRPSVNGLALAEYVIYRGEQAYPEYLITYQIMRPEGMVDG

[2] = tested on: HEK293 cells cotransfected with the FOP control vector; test: HEK293 FOP assay (control reporter with non-functional TCF elements); type: cell-based; details: Homo sapiens, 16 hours
How it was run: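 Stable HEK293 line carrying FOP control reporter (randomized non-functional TCF sites, with pcDNA3), Geneticin-selected, plated 24 h before assay. Stimulated with recombinant human Wnt-3a (2500-5 ng/ml) and compounds 50 μM–15 nM (3.16-fold steps) in CAFTY buffer pH 7.4 with 2 mM Ca2+, 0.01% BSA, run parallel to TOP line.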

SMILES: O=C(N[C@H]1CC[C@H](C(=O)Nc2cnc(C(F)(F)F)cc2Cl)CC1)c1cnn2cccnc12 [Example 149, N-(trans-4-{[4-chloro-6-(trifluoromethyl)pyridin-3-yl]carbamoyl}cyclohexyl)pyrazolo[1,5-a]pyrimidine-3-carboxamide]
- IC50 [1]: 170 nM
- IC50 [2]: ≥ 50000 nM

SMILES: Cc1cc(NC(=O)[C@H]2CC[C@H](NC(=O)c3cnn4cccnc34)CC2)c(Cl)cc1F [Example 150, N-{trans-4-[(2-chloro-4-fluoro-5-methylphenyl)carbamoyl]cyclohexyl}pyrazolo[1,5-a]pyrimidine-3-carboxamide]
- IC50 [1]: 35 nM
- IC50 [2]: ≥ 50000 nM

SMILES: Cc1cc(F)cc(Cl)c1NC(=O)[C@H]1CC[C@H](NC(=O)c2cnn3cccnc23)CC1 [Example 151, N-{trans-4-[(2-chloro-4-fluoro-6-methylphenyl)carbamoyl]cyclohexyl}pyrazolo[1,5-a]pyrimidine-3-carboxamide]
- IC50 [1]: 150 nM
- IC50 [2]: ≥ 50000 nM

SMILES: CCN(c1ccc(F)cc1Cl)C(=O)[C@H]1CC[C@H](NC(=O)c2cnn3cccnc23)CC1 [Example 154, N-{trans-4-[(2-chloro-4-fluorophenyl)(ethyl)carbamoyl]cyclohexyl}pyrazolo[1,5-a]pyrimidine-3-carboxamide]
- IC50 [1]: 57 nM
- IC50 [2]: ≥ 50000 nM

SMILES: CN(c1ccc(F)cc1Cl)C(=O)[C@H]1CC[C@H](NC(=O)c2cnn3cccnc23)CC1 [Example 155, N-{trans-4-[(2-chloro-4-fluorophenyl)(methyl)carbamoyl]cyclohexyl}pyrazolo[1,5-a]pyrimidine-3-carboxamide]
- IC50 [1]: 91 nM
- IC50 [2]: ≥ 50000 nM

SMILES: CN(c1ccccc1)C(=O)[C@H]1CC[C@H](NC(=O)c2cnn3cccnc23)CC1 [Example 156, N-{trans-4-[methyl(phenyl)carbamoyl]cyclohexyl}pyrazolo[1,5-a]pyrimidine-3-carboxamide]
- IC50 [1]: 230 nM
- IC50 [2]: ≥ 50000 nM

SMILES: CNC(=O)c1nc[nH]c1C(=O)N[C@H]1CC[C@H](C(=O)N(CCO)c2ccc(F)cc2Cl)CC1 [Example 157, N^5-{trans-4-[(2-chloro-4-fluorophenyl)(2-hydroxyethyl)carbamoyl]cyclohexyl}-N^4-methyl-1H-imidazole-4,5-dicarboxamide]
- IC50 [1]: 280 nM
- IC50 [2]: ≥ 50000 nM

SMILES: CC1CCN(CCNC(=O)c2nc[nH]c2C(=O)N[C@H]2CC[C@@]3(CCN(c4ccc(F)cc4Cl)C3=O)CC2)CC1 [Example 160, N^5-[(trans)-2-(2-chloro-4-fluorophenyl)-1-oxo-2-azaspiro[4.5]dec-8-yl]-N^4-[2-(4-methylpiperidin-1-yl)ethyl]-1H-imidazole-4,5-dicarboxamide]
- IC50 [1]: 3.4 nM
- IC50 [2]: ≥ 50000 nM

SMILES: O=C(NCCN1CCCCC1)c1nc[nH]c1C(=O)N[C@H]1CC[C@@]2(CCN(c3ccc(F)cc3Cl)C2=O)CC1 [Example 161, N^5-[(trans)-2-(2-chloro-4-fluorophenyl)-1-oxo-2-azaspiro[4.5]dec-8-yl]-N^4-[2-(piperidin-1-yl)ethyl]-1H-imidazole-4,5-dicarboxamide]
- IC50 [1]: 1.6 nM
- IC50 [2]: ≥ 50000 nM

SMILES: CC(C)NC(=O)c1nc[nH]c1C(=O)N[C@H]1CC[C@@]2(CCN(c3ccc(F)cc3Cl)C2=O)CC1 [Example 162, N^5-[(trans)-2-(2-chloro-4-fluorophenyl)-1-oxo-2-azaspiro[4.5]dec-8-yl]-N^4-isopropyl-1H-imidazole-4,5-dicarboxamide]
- IC50 [1]: 8.2 nM
- IC50 [2]: 40000 nM

SMILES: COCCNC(=O)c1nc[nH]c1C(=O)N[C@H]1CC[C@@]2(CCN(c3ccc(F)cc3Cl)C2=O)CC1 [Example 163, N^5-[(trans)-2-(2-chloro-4-fluorophenyl)-1-oxo-2-azaspiro[4.5]dec-8-yl]-N^4-(2-methoxyethyl)-1H-imidazole-4,5-dicarboxamide]
- IC50 [1]: 5.9 nM
- IC50 [2]: ≥ 50000 nM

SMILES: O=C(NC1CC1)c1nc[nH]c1C(=O)N[C@H]1CC[C@@]2(CCN(c3ccc(F)cc3Cl)C2=O)CC1 [Example 165, N^5-[(trans)-2-(2-chloro-4-fluorophenyl)-1-oxo-2-azaspiro[4.5]dec-8-yl]-N^4-cyclopropyl-1H-imidazole-4,5-dicarboxamide]
- IC50 [1]: 6.3 nM
- IC50 [2]: 35000 nM

SMILES: O=C(N[C@H]1CC[C@@]2(CCN(c3ccc(F)cc3Cl)C2=O)CC1)c1[nH]cnc1C(=O)N1CC(F)C1 [Example 166, N-[(trans)-2-(2-chloro-4-fluorophenyl)-1-oxo-2-azaspiro[4.5]dec-8-yl]-4-[(3-fluoroazetidin-1-yl)carbonyl]-1H-imidazole-5-carboxamide]
- IC50 [1]: 2.6 nM
- IC50 [2]: ≥ 50000 nM
